Publication PMC2981624 (Chemical research in toxicology, 2010)
“Also recorded” adds a separate entry of the source. Where two headings read alike, the source gives them in different places.

Columns and labels:
[1] = tested on: Salmonella typhimurium strain TA98; settings: for concentration dependence of mutagenicity (revertants/plate): 0.1-100 μM
[2] = tested on: Salmonella typhimurium strain TA100; settings: 10 and 100 μM (Figure 1)
[3] = tested on: Salmonella typhimurium strain TA100; settings: cited from earlier work
[4] = tested on: Salmonella typhimurium strain TA98; settings: cited from earlier work
[5] = tested on: primary normal human lung cells; settings: 0.1 to 10 μM; cited from earlier work
lung adenoma = settings: cited from earlier work
[6] = 10 μM, 50 pmol 1A1 Supersomes, presence of NADPH
[7] = 10 μM, 50 pmol recombinant 2A13, presence of NADPH
[8] = 0.5 mg human lung microsomes, presence of NADPH
[9] = 0.5 mg human lung microsomes, presence of NADPH, equal concentrations
[10] = 2 mg rat liver S9, presence of NADPH

Nn1nnc2ccccc21 [ABT, 1-aminobenzotriazole, reference compound]
mutagenicity of inhibitor alone ([1]; 0.5 mM ABT alone, 0.5 mg human lung microsomes): did not prove to be mutagenic
effect on 3MI-mediated mutagenesis ([1]; 0.5 mM ABT with 100 μM 3MI, 0.5 mg human lung microsomes, presence of NADPH): completely inhibited the mutagenesis
effect on B(a)P-mediated mutagenesis ([1]; 0.5 mM ABT with 100 μM B(a)P, 0.5 mg human lung microsomes, presence of NADPH): completely inhibited the mutagenesis
effect on NNK-mediated mutagenesis ([1]; 0.5 mM ABT with 100 μM NNK, 0.5 mg human lung microsomes, presence of NADPH): completely inhibited the mutagenesis

Cc1c[nH]c2ccccc12 [3MI, 3-methylindole]
mutagenicity (revertants/plate) [1, 6]: statistically significant increases in mutagenicity
mutagenicity (number of mutants) ([1]; 10 μM, 50 pmol purified 2F3, presence of NADPH): significant increase in the number of mutants
mutagenicity (revertants/plate) [1, 7]: statistically significant increases in the number of revertants per plate; also recorded: highest levels of mutagenicity
cytotoxicity to bacteria (density of background lawn) ([1]; 100 μM, 0.5 mg human lung microsomes): cytotoxic
concentration dependence of mutagenicity (revertants/plate) [1, 8]: increasing mutagenicity up through the 10 μM concentration, but lower revertants/plate with the highest concentration (100 μM)
mutagenicity compared to BaP [1, 9]: more mutagenic than BaP was at the 1.0 μM (p=0.006) and 10 μM (p=0.005) concentrations, although not at the 0.1 μM (p=0.1) or 100 μM (p=0.9) concentrations
mutagenicity compared to NNK [1, 9]: significantly more mutagenic than NNK was at the 0.1 μM (p=0.05), 1.0 μM (p=0.002), and 10 μM (p=0.007) concentrations, although not at the 100 μM (p=0.8) concentration
mutagenicity (revertants/plate) ([1]; 2 mg human liver S9, presence of NADPH): Neither incubation of 3MI with Salmonella typhimurium strain TA98 and 2 mg human liver S9, or 2 mg rat liver S9 was mutagenic; also recorded: failed to produce 3MI-mediated mutagenesis
mutagenicity (revertants/plate) [1, 10]: Neither incubation of 3MI with Salmonella typhimurium strain TA98 and 2 mg human liver S9, or 2 mg rat liver S9 was mutagenic; also recorded: failed to produce 3MI-mediated mutagenesis
mutagenicity (revertants/plate) [2, 8]: failed to increase mutagenesis at any concentration
mutagenicity (revertants/plate) [2, 10]: failed to increase mutagenesis at any concentration
mutagenicity ([3]; rat liver S9): not mutagenic
mutagenicity ([4]; purified CYP2F3): mutagenic
mutagenicity ([4]; rat liver S9 fractions): not mutagenic
induction of markers of carcinogenesis [5]: induce markers of carcinogenesis, including DNA damage and p53 nuclear localization

CN(CCCC(=O)c1cccnc1)N=O [NNK, 4-(methylnitrosamino)-1-(3-pyridyl)-1-butanone, reference compound]
mutagenicity (revertants/plate) [1, 6]: did not result in an increased number of revertants
mutagenicity (revertants/plate) [1, 7]: statistically significant increases in the number of revertants per plate
concentration dependence of mutagenicity (revertants/plate) [1, 8]: mutagenicity increased in a concentration-dependent manner up through the 100 μM concentration
mutagenicity (revertants/plate) [2, 8]: failed to increase mutagenesis at any concentration
mutagenicity (revertants/plate) [2, 10]: failed to increase mutagenesis at any concentration
base pair substitution mutations [3]: does not cause base pair substitution mutations

COc1c2occc2cc2ccc(=O)oc12 [8-MOP, 8-methoxypsoralen]
chemopreventive effect (lung adenoma): chemopreventive effect
